Data as given in patent publication US9822126B1, “Substituted 1,2,3-triazol-1-yl-methyl-2,3-dihydro-2-methyl-6-nitroimidazo[2,1-b]oxazoles as anti-mycobacterial agents and a process for the preparation thereof” (priority 2014, dated 2017).
In brackets after ≈: the same amount, converted by molar mass. Where two headings read alike, the source gives them in different places.

Assays:
Experiment in all cases: microbe, parasite or virus in culture
Type in all cases: cell-based
[1] = tested on: Rif^R: rifampicin resistant tuberculosis; conditions: Mycobacterium tuberculosis, read-out: MIC (Rif^R)
[2] = tested on: M. tuberculosis MDR (resistant to isoniazid and rifampicin); conditions: Mycobacterium tuberculosis
[3] = tested on: M. tuberculosis XDR (resistant to isoniazid, rifampicin, amikacin and moxifloxacin); conditions: Mycobacterium tuberculosis, 504 h, read-out: MIC XDR
[4] = read-out: MIC against multi and extensive-drug resistant strains

SMILES | MIC [1] | MIC ([2]; 504 h, read-out: MIC MDR) | MIC ([2]; read-out: MIC value) | MIC [3] | MIC [2, 4]
C[C@]1(Cn2cc(COc3ccccn3)nn2)Cn2cc([N+](=O)[O-])nc2O1 [I19, (R)-2-Methyl-6-nitro-2-((4-((pyridin-2-yloxy)methyl)-1H-1,2,3-triazol-1-yl)methyl)-2,3-dihydroimidazo[2,1-b]oxazole] | 0.5 µg/mL (≈ 1.4 µM) | 0.25 µg/mL (≈ 0.7 µM) | < 1 µg/mL | 0.5 µg/mL (≈ 1.4 µM) | 
C[C@]1(Cn2cc(COc3cccc(F)c3)nn2)Cn2cc([N+](=O)[O-])nc2O1 [I16, (R)-2-((4-((3-Fluorophenoxy)methyl)-1H-1,2,3-triazol-1-yl)methyl)-2-methyl-6-nitro-2,3-dihydroimidazo[2,1-b]oxazole] | 2 µg/mL (≈ 5.34 µM) | 2 µg/mL (≈ 5.34 µM) |  | 2 µg/mL (≈ 5.34 µM) | 
C[C@]1(Cn2cc(COc3ccc(C(F)(F)F)cc3)nn2)Cn2cc([N+](=O)[O-])nc2O1 [I9, (R)-2-Methyl-6-nitro-2-((4-((4-(trifluoromethyl)phenoxy)methyl)-1H-1,2,3-triazol-1-yl)methyl)-2,3-dihydroimidazo[2,1-b]oxazole] | 4 µg/mL (≈ 9.43 µM) | 4 µg/mL (≈ 9.43 µM) |  | 4 µg/mL (≈ 9.43 µM) | 
Cc1ccc(OCCc2cn(C[C@@]3(C)Cn4cc([N+](=O)[O-])nc4O3)nn2)cc1 [I21, (R)-2-Methyl-6-nitro-2-((4-(2-(p-tolyloxy)ethyl)-1H-1,2,3-triazol-1-yl)methyl)-2,3-dihydroimidazo[2,1-b]oxazole] | 1 µg/mL (≈ 2.6 µM) | 0.25 µg/mL (≈ 0.65 µM) | < 1 µg/mL | 0.25 µg/mL (≈ 0.65 µM) | 0.25 µg/mL (≈ 0.65 µM)
C[C@]1(Cn2cc(-c3ccc(OC(F)(F)F)cc3)nn2)Cn2cc([N+](=O)[O-])nc2O1 [I1, (R)-2-Methyl-6-nitro-2-((4-(4-(trifluoromethoxy)phenyl)-1H-1,2,3-triazol-1-yl)methyl)-2,3-dihydroimidazo[2,1-b]oxazole] | 2 µg/mL (≈ 4.87 µM) | 2 µg/mL (≈ 4.87 µM) |  | 1 µg/mL (≈ 2.44 µM) | 
C[C@]1(Cn2cc(COc3cccc(Cl)c3)nn2)Cn2cc([N+](=O)[O-])nc2O1 [I10, (R)-2-((4-((3-Chlorophenoxy)methyl)-1H-1,2,3-triazol-1-yl)methyl)-2-methyl-6-nitro-2,3-dihydroimidazo[2,1-b]oxazole] | 2 µg/mL (≈ 5.12 µM) | 2 µg/mL (≈ 5.12 µM) |  | 4 µg/mL (≈ 10.2 µM) | 
CCCCCc1cn(C[C@@]2(C)Cn3cc([N+](=O)[O-])nc3O2)nn1 [I7, (R)-2-[(4-Pentyl-1H-1,2,3-triazol-1-yl)methyl]-2,3-dihydro-2-methyl-6-nitroimidazo[2,1-b]oxazole] | 8 µg/mL (≈ 25 µM) | 2 µg/mL (≈ 6.24 µM) |  | 8 µg/mL (≈ 25 µM) | 
C[C@]1(Cn2cc(-c3ccc(F)cc3F)nn2)Cn2cc([N+](=O)[O-])nc2O1 [I5, (R)-2-((4-(2,4-Difluorophenyl)-1H-1,2,3-triazol-1-yl)methyl)-2-methyl-6-nitro-2,3-dihydroimidazo[2,1-b]oxazole] | 4 µg/mL (≈ 11 µM) | 1 µg/mL (≈ 2.76 µM) |  | 4 µg/mL (≈ 11 µM) | 
C[C@]1(Cn2cc(-c3ccc(C(F)(F)F)cc3)nn2)Cn2cc([N+](=O)[O-])nc2O1 [I2, (R)-2-Methyl-6-nitro-2-((4-(4-(trifluoromethyl)phenyl)-1H-1,2,3-triazol-1-yl)methyl)-2,3-dihydroimidazo[2,1-b]oxazole] | 4 µg/mL (≈ 10.1 µM) | 2 µg/mL (≈ 5.07 µM) |  | 2 µg/mL (≈ 5.07 µM) | 
Cc1ccccc1OCc1cn(C[C@@]2(C)Cn3cc([N+](=O)[O-])nc3O2)nn1 [I14, (R)-2-Methyl-6-nitro-2-((4-((o-tolyloxy)methyl)-1H-1,2,3-triazol-1-yl)methyl)-2,3-dihydroimidazo[2,1-b]oxazole] | 1 µg/mL (≈ 2.7 µM) | 1 µg/mL (≈ 2.7 µM) |  | 1 µg/mL (≈ 2.7 µM) | 
CCc1ccc(OCc2cn(C[C@@]3(C)Cn4cc([N+](=O)[O-])nc4O3)nn2)cc1 [I15, (R)-2-((4-((4-Ethylphenoxy)methyl)-1H-1,2,3-triazol-1-yl)methyl)-2-methyl-6-nitro-2,3-dihydroimidazo[2,1-b]oxazole] | 4 µg/mL (≈ 10.4 µM) | 2 µg/mL (≈ 5.2 µM) |  | 4 µg/mL (≈ 10.4 µM) | 
C[C@]1(Cn2cc(CN3CCOCC3)nn2)Cn2cc([N+](=O)[O-])nc2O1 [I22, (R)-2-Methyl-2-((4-(morpholinomethyl)-1H-1,2,3-triazol-1-yl)methyl)-6-nitro-2,3-dihydroimidazo[2,1-b]oxazole] | 2 µg/mL (≈ 5.72 µM) | 2 µg/mL (≈ 5.72 µM) |  | 2 µg/mL (≈ 5.72 µM) | 
C[C@]1(Cn2cc(COc3ccc(Br)cc3)nn2)Cn2cc([N+](=O)[O-])nc2O1 [I11, (R)-2-((4-((4-Bromophenoxy)methyl)-1H-1,2,3-triazol-1-yl)methyl)-2-methyl-6-nitro-2,3-dihydroimidazo[2,1-b]oxazole] | 0.12 µg/mL (≈ 0.276 µM) | 0.12 µg/mL (≈ 0.276 µM) | < 1 µg/mL | 0.25 µg/mL (≈ 0.574 µM) | 0.12 µg/mL (≈ 0.276 µM)
C[C@]1(Cn2cc(COc3ccc(OC(F)(F)F)cc3)nn2)Cn2cc([N+](=O)[O-])nc2O1 [I8, (R)-2-Methyl-6-nitro-2-((4-((4-(trifluoromethoxy)phenoxy)methyl)-1H-1,2,3-triazol-1-yl)methyl)-2,3-dihydroimidazo[2,1-b]oxazole] | 2 µg/mL (≈ 4.54 µM) | 2 µg/mL (≈ 4.54 µM) |  | 2 µg/mL (≈ 4.54 µM) | 
CC(C)c1ccc(OCc2cn(C[C@@]3(C)Cn4cc([N+](=O)[O-])nc4O3)nn2)cc1 [I18, (R)-2-((4-((4-Isopropylphenoxy)methyl)-1H-1,2,3-triazol-1-yl)methyl)-2-methyl-6-nitro-2,3-dihydroimidazo[2,1-b]oxazole] | 2 µg/mL (≈ 5.02 µM) | 1 µg/mL (≈ 2.51 µM) |  | 4 µg/mL (≈ 10 µM) | 
Cc1ccc(OCc2cn(C[C@@]3(C)Cn4cc([N+](=O)[O-])nc4O3)nn2)cc1 [I12, (R)-2-Methyl-6-nitro-2-((4-((p-tolyloxy)methyl)-1H-1,2,3-triazol-1-yl)methyl)-2,3-dihydroimidazo[2,1-b]oxazole] | 8 µg/mL (≈ 21.6 µM) | 2 µg/mL (≈ 5.4 µM) |  | 8 µg/mL (≈ 21.6 µM) | 
C[C@]1(Cn2cc(-c3ccc(Oc4ccccc4)cc3)nn2)Cn2cc([N+](=O)[O-])nc2O1 [I6, (R)-2-Methyl-6-nitro-2-((4-(4-phenoxyphenyl)-1H-1,2,3-triazol-1-yl)methyl)-2,3-dihydroimidazo[2,1-b]oxazole] | 1 µg/mL (≈ 2.39 µM) | 1 µg/mL (≈ 2.39 µM) |  | 1 µg/mL (≈ 2.39 µM) | 
C[C@]1(Cn2cc(-c3ccc(F)cc3)nn2)Cn2cc([N+](=O)[O-])nc2O1 [I3, (R)-2-((4-(4-Fluorophenyl)-1H-1,2,3-triazol-1-yl)methyl)-2-methyl-6nitro-2,3-dihydro imidazo[2,1-b]oxazole] | 2 µg/mL (≈ 5.81 µM) | 2 µg/mL (≈ 5.81 µM) |  | 2 µg/mL (≈ 5.81 µM) | 
Cc1cc(-c2cn(C[C@@]3(C)Cn4cc([N+](=O)[O-])nc4O3)nn2)ccc1F [I4, (R)-2-((4-(4-Fluoro-3-methylphenyl)-1H-1,2,3-triazol-1-yl)methyl)-2-methyl-6-nitro-2,3-dihydroimidazo[2,1-b]oxazole] | 1 µg/mL (≈ 2.79 µM) | 4 µg/mL (≈ 11.2 µM) |  | 2 µg/mL (≈ 5.58 µM) | 
C[C@]1(Cn2cc(COc3ccccc3F)nn2)Cn2cc([N+](=O)[O-])nc2O1 [I17, (R)-2-((4-((2-Fluorophenoxy)methyl)-1H-1,2,3-triazol-1-yl)methyl)-2-methyl-6-nitro-2,3-dihydroimidazo[2,1-b]oxazole] | 1 µg/mL (≈ 2.67 µM) | 0.5 µg/mL (≈ 1.34 µM) | < 1 µg/mL | 1 µg/mL (≈ 2.67 µM) | 0.5 µg/mL (≈ 1.34 µM)
Cc1cccc(OCc2cn(C[C@@]3(C)Cn4cc([N+](=O)[O-])nc4O3)nn2)c1 [I13, (R)-2-Methyl-6-nitro-2-((4-((m-tolyloxy)methyl)-1H-1,2,3-triazol-1-yl)methyl)-2,3-dihydroimidazo[2,1-b]oxazole] | 1 µg/mL (≈ 2.7 µM) | 1 µg/mL (≈ 2.7 µM) |  | 2 µg/mL (≈ 5.4 µM) | 
Cc1ccc(SCc2cn(C[C@@]3(C)Cn4cc([N+](=O)[O-])nc4O3)nn2)cc1 [I20, (R)-2-Methyl-6-nitro-2-((4-((p-tolylthio)methyl)-1H-1,2,3-triazol-1-yl)methyl)-2,3-dihydroimidazo[2,1-b]oxazole] | 0.25 µg/mL (≈ 0.647 µM) | 0.5 µg/mL (≈ 1.29 µM) | < 1 µg/mL | 2 µg/mL (≈ 5.18 µM) | 
